Several values for one entry are separate records, joined by “and”; a condition that tells them apart may be missing. Identical values can stand only once.
Tests used:
[1] = target: T1, glycine B site (Rattus norvegicus, UniProt P35439); test: Binding of [^3 H]-glycine to rat brain membranes (glycine B site); parameters: species or system rat (Wistar); conditions: [^3 H]-glycine 10 nM, 20 minutes at 4° C., concentration inhibiting radioligand binding by 50%
T1 construct: from tissue; host or cells: rat brain without cerebellum (Wistar males), Triton-treated membranes
Method: (§1) Preparation of the membranes (according to Yoneda et al., J. Neurochem., 55, 1, 237-244, 1990)
(§2) The membranes are prepared and used in the same way for both radioligands. The buffers are prepared with sterile Milli-Q water (Millipore) which is deionized and filtered, just before use, on a nitrocellulose filter (0.45 μm).
(§3) After dissection, the brains from rats (Wistar males, 240-260 g), freed from the cerebellum, are placed in an ice-cold buffer comprising Tris-acetate (1 mM), EGTA (1 mM) and sucrose (320 mM) at pH 7. The brains are milled and then homogenized using a polytron. The suspension is centrifuged for 10 minutes at 1000 g and the supernatent containing the membranes is recovered and recentrifuged for 20 minutes at 35000 g. The pellet, freed from a brown ring, is recovered in a lysis buffer comprising Tris-acetate (1 mM) and EGTA (1 mM) at pH 8. The suspension is then left for 15 minutes at 4° C. and is then centrifuged for 20 minutes at 35000 g. The pellet is recovered in a Tris-acetate (50 mM) buffer at pH 7.4 containing 0.08% Triton and left for 30 minutes at 4° C.
(§4) After two successive centrifugings, the pellet is taken up in Tris-acetate (50 mM) buffer at pH 7.4, divided into aliquots and stored at -80° C. On the day of the experiment, at most 3 weeks after the preparation, the membranes are washed twice with Tris-acetate (50 mM) buffer at pH 7.4.
(§5) Binding experiments (according to Yoneda et al., J. Neurochem., 60, 2, 634-645, 1993)
(§6) The free and bound radioligands are separated on GF/B filters, preimpregnated with PEI (0.1%), using a Brandle filtration device. […] Each filter is rinsed 3 times. The radioactivity is measured using a β-counter (Tricarb 1500, Packard) and expressed in dpm. The curves obtained are analyzed using GraphPad Prism software (non-linear regression).

[2] = test system: NMDA channel; test: Binding of [^3 H]-MK 801 to rat brain membranes (NMDA channel), stimulation or inhibition; parameters: species or system rat (Wistar); conditions: for ME (maximum effect) on [^3 H]-MK 801 binding: with respect to a base of 0%, + = stimulation, - = inhibition; for IC50: read-out: IC50, [^3 H]-MK 801 binding, [^3 H]-MK 801 1 nM, 120 minutes at 20° C., antagonists; for activity at glycine B receptor (in words): agonist character
Method: as §1, §2, §3, §4, §5, §6
The opening of the channel of the NMDA receptor complex is modulated positively by the glycinergic site.

`N[C@@H]1CCN(O)C1=O` [(+)-HA966] was tested, and the IC50 [1] was 7.3 µM, the “ME (maximum effect) on [^3 H]-MK 801 binding” value (shortened to “ME (maximum effect)”) ([2]; at 100 μM) was -85 ± 7% and the IC50 [2] was 6.73 µM.
`O=C1CNCN1O` [Example 1, 3-Hydroxy-4-imidazolidinone] was tested, and the IC50 [1] was 6.81 ± 0.545 µM, the IC50 ([1]; listed as compound of the invention) was 6.8 µM and the “ME (maximum effect)” value ([2]; at 10 μM) was “+46 ± 3%”. For the same compound, the “ME (maximum effect)” value ([2]; at 10 μM, listed as compound of the invention) was 46%, the “activity at glycine B receptor (in words)” value ([2]; qualitative, listed as compound of the invention) was “behaves as an agonist” and the “activity at glycine B receptor (in words)” value ([2]; qualitative, listed as compound of the present invention) was “powerful partial agonist”. For the same compound, the “effect on binding of [^3 H]-MK 801 (in words)” value ([2]; rat brain membranes, qualitative) was “stimulates the binding of [^3 H]-MK 801”.
`O=c1[nH]c2cc(Cl)ccc2c(O)c1-c1cccc(Oc2ccccc2)c1` [L 701,324] was tested, and the IC50 [1] was 0.026 µM and ~0.026 µM, the “ME (maximum effect)” value ([2]; at 1 μM) was -91 ± 3% and the IC50 [2] was 0.022 µM.
